pIC50: −log10 of the molar value.
What was measured:
[1] = target: T1, Dual specificity tyrosine-phosphorylation-regulated kinase 1A (Homo sapiens, UniProt Q13627); assay: Inhibition of DYRK1A (unknown origin)
[2] = Displacement of [gamma-33P]-ATP from GSK-3 derived from porcine brain using YRRAAVPPSPSLSRHSSPHQSpEDEEE as substrate incubated for 30 mins by scintillation counting analysis; design: species or system Sus scrofa
[3] = target: T1, Dual specificity tyrosine-phosphorylation-regulated kinase 1A; assay: Inhibition of GST-fused recombinant human DYRK1A expressed in Escherichia coli using KKISGRLSPIMTEQ as substrate in presence of ATP
[4] = target: T1, Dual specificity tyrosine-phosphorylation-regulated kinase 1A; assay: Inhibition of DYRK1A (unknown origin) using KKISGRLSPIMTEQ as substrate incubated for 30 mins in presence of ATP by ADP-Glo assay
[5] = target: T1, Dual specificity tyrosine-phosphorylation-regulated kinase 1A; assay: Inhibition of N-terminal 6His-tagged recombinant human DYRK1A ([…] residues) expressed in Escherichia coli BL21(DE3) using RARPGTPALRE as substrate incubated for 60 mins in presence of ATP/NADH by enzymatic assay

For `Nc1ncc(-c2ccccc2)nc1C(=O)Nc1cnccc1N1CCC(N)CC1`, the pIC50 [1] was 7.41.

Work on `O=c1c2c(ccc3nc(-c4cccnc4)sc32)ncn1C1CC1` yielded a pIC50 [2] of 7.17.

`O=c1c2c(ccc3nc(-c4cnccn4)sc32)ncn1Cc1ccccc1` gave a pIC50 [3] of 6.95 and a pIC50 [2] of 5.22.

Work on `Nc1ncc(-c2ccccc2F)nc1C(=O)Nc1cnccc1N1CCC(C(=O)O)CC1` yielded a pIC50 [1] of 6.61.

For `O=C1CCCc2[nH]c3c(Cl)cccc3c21`, the pIC50 [4] was 5.80.

`O=c1c2c(ccc3nc(-c4cccnc4)sc32)ncn1Cc1ccccc1` showed a pIC50 [2] of 5.43.

In the case of `O=C1c2c([nH]c3c(Cl)cccc23)CCC1N1CCCCC1` (centres undefined), the pIC50 [4] was < 5.00.

Work on `COc1c(CC=C(C)C)c(O)cc2oc(-c3ccc(O)cc3O)cc12` [LICOCOUMARONE] yielded a pIC50 [5] of 4.90.

From ChEMBL document CHEMBL5136986, “DYRK1A inhibitors for disease therapy: Current status and perspectives” (Eur J Med Chem, 2022)
